Measured values as given in patent publication US20200397728A1, “PHARMACEUTICAL FORMULATION FOR CARGLUMIC ACID” (RECORDATI S.p.A., priority 2019, published 2020).
Where two headings read alike, the source gives them in different places.

Legend:
[1] = cited from earlier work
[2] = Stability/compatibility of carglumic acid-excipient binary mixes, HPLC chromatographic purity; format: physicochemical
Protocol: Carglumic acid alone was also stored under the same conditions. […] Chromatographic purity have been tested for all the reported combinations and storage conditions. Under these chromatographic conditions the retention time (Rt) of carglumic acid is about 6.6 min. […] [table] [table]

[3] = 25° C./60% RH Closed bottles, 15 days
[4] = 25° C./60% RH Closed bottles, 30 days
[5] = 25° C./60% RH Open bottles, 7 days
[6] = 25° C./60% RH Open bottles, 15 days
[7] = 40° C./75% RH Closed bottles, 15 days
[8] = 40° C./75% RH Closed bottles, 30 days

Imp. 1 RRT 1.93 [2, 3]: 0.01% | Imp. 2 RRT 2.21 [2, 3]: 0.00% | Imp. 5a RRT 2.34 [2, 3]: 0.01% | Imp. 5b RRT 2.77 [2, 3]: 0.00% | Imp. 6 RRT 1.20 [2, 3]: 0.00% | Max, single unknown impurity [2, 3]: 0.03% | Total impurities [2, 3]: 0.08% | Imp. 1 RRT 1.93 [2, 4]: 0.03% | Imp. 2 RRT 2.21 [2, 4]: 0.01% | Imp. 5a RRT 2.34 [2, 4]: 0.01% | Imp. 5b RRT 2.77 [2, 4]: 0.00% | Imp. 6 RRT 1.20 [2, 4]: 0.00% | Max, single unknown impurity [2, 4]: 0.03% | Total impurities [2, 4]: 0.08% | Imp. 1 RRT 1.93 [2, 5]: 0.03% | Imp. 2 RRT 2.21 [2, 5]: 0.01% | Imp. 5a RRT 2.34 [2, 5]: 0.02% | Imp. 5b RRT 2.77 [2, 5]: 0.00% | Imp. 6 RRT 1.20 [2, 5]: 0.00% | Max, single unknown impurity [2, 5]: 0.05% | Total impurities [2, 5]: 0.18% | Imp. 1 RRT 1.93 [2, 6]: 0.04% | Imp. 2 RRT 2.21 [2, 6]: 0.01% | Imp. 5a RRT 2.34 [2, 6]: 0.00% | Imp. 5b RRT 2.77 [2, 6]: 0.00% | Imp. 6 RRT 1.20 [2, 6]: 0.00% | Max, single unknown impurity [2, 6]: 0.02% | Total impurities [2, 6]: 0.11% | Imp. 1 RRT 1.93 [2, 7]: 0.03% | Imp. 2 RRT 2.21 [2, 7]: 0.01% | Imp. 5a RRT 2.34 [2, 7]: 0.01% | Imp. 5b RRT 2.77 [2, 7]: 0.01% | Imp. 6 RRT 1.20 [2, 7]: 0.00% | Max, single unknown impurity [2, 7]: 0.02% | Total impurities [2, 7]: 0.12% | Imp. 1 RRT 1.93 [2, 8]: 0.03% | Imp. 2 RRT 2.21 [2, 8]: 0.01% | Imp. 5a RRT 2.34 [2, 8]: 0.01% | Imp. 5b RRT 2.77 [2, 8]: 0.00% | Imp. 6 RRT 1.20 [2, 8]: 0.00% | Max, single unknown impurity [2, 8]: 0.03% | Total impurities [2, 8]: 0.11% | Imp. 1 RRT 1.93 ([2]; 60° C. Closed bottles, 1 day): 0.03% | Imp. 2 RRT 2.21 ([2]; 60° C. Closed bottles, 1 day): 0.01% | Imp. 5a RRT 2.34 ([2]; 60° C. Closed bottles, 1 day): 0.01% | Imp. 5b RRT 2.77 ([2]; 60° C. Closed bottles, 1 day): 0.00% | Imp. 6 RRT 1.20 ([2]; 60° C. Closed bottles, 1 day): 0.00% | Max, single unknown impurity ([2]; 60° C. Closed bottles, 1 day): 0.02% | Total impurities ([2]; 60° C. Closed bottles, 1 day): 0.10% | Imp. 1 RRT 1.93 ([2]; t = 0): 0.02% | Imp. 2 RRT 2.21 ([2]; t = 0): 0.01% | Imp. 5a RRT 2.34 ([2]; t = 0): 0.00% | Imp. 5b RRT 2.77 ([2]; t = 0): 0.01% | Imp. 6 RRT 1.20 ([2]; t = 0): 0.00% | Max, single unknown impurity ([2]; t = 0): 0.03% | Total impurities ([2]; t = 0): 0.07%
Structure (SMILES): NC(=O)N[C@@H](CCC(=O)O)C(=O)O [Carglumic Acid, Carglumic acid]
Solubility ([1]; boiling water): soluble | Solubility ([1]; cold water): slightly soluble | Solubility ([1]; organic solvents (cyclohexane, dichloromethane, ether)): practically insoluble
